Assay results taken from patent publication US10556943B2, “HLA-DR binding peptides and their uses” (priority 2007, dated 2020).
Ends that are not written are not given here.

Key:
purified HLA DRB1*0701 = target: T1, purified HLA DRB1*0701 (Homo sapiens, UniProt P01903+P01911, A100R/A102G/A103Q/D57E/D86V/E43K/F76Y/K127E/L162R/M171V/P40G/Q125H/Q99D/R33Q/R42Y/R54Q/S133A/S66F/T210M/V115G/Y107V/Y59L/Y89S); experiment: HLA-DR radioligand binding inhibition assay, DRB1*0701
T1 construct: MHC molecules utilized were purified from EBV transformed homozygous cell lines or single MHC allele transfected 721.221, C1R, or fibroblast lines; made in house; host or cells: EBV transformed homozygous cell lines or single MHC allele transfected 721.221, C1R, or fibroblast lines
Procedure: (§1) Fifteen distinct HLA-DR molecules were used in quantitative assays to measure the binding of peptides to solubilized HLA-DR molecules. […] Briefly, columns of inactivated Sepharose CL4B and Protein A Sepharose were used as pre-columns. HLA-DR molecules were captured by passage of lysates over LB3.1 monoclonal antibody (anti-HLA-DRA) columns. Antibody columns were washed with 10 mM Tris-HCL, pH8.0 with 1% (v/v) NP-40, followed by PBS containing 0.4% (w/v) n-octylglucoside.
(§2) Briefly, 1-10 nM of radiolabeled peptide was co-incubated for 2 days at either room temperature or 37° C. with 1 μM to 1 nM purified HLA-DR molecules in the presence of a cocktail of protease inhibitors. Assays were performed at various pH conditions, ranging from pH 4 to pH 7. […] After incubation, the percentage of HLA-DR-bound radioactivity is determined by capturing HLA-DR/peptide complexes on Optiplates (Packard Instruments, Meriden, Conn.) coated with the LB3.1 antibody and determining bound counts per minute using the TopCount microscintillation counter (Packard Instruments).

patient-derived PBMC = experiment: 10-day interferon-gamma ELIspot on PBMC of patients and healthy donors; type: cell-based, human; conditions: for % = Percent of patients with responses: ELIspot, patients with either breast or ovarian cancer; for fraction of patients that had mean T cell values above the cutoff: cutoff = mean and two standard deviations of normal healthy individuals
Excerpt: Enzyme-linked immunosorbent spot assay.
An interferon-gamma ELIspot assay was used to assess immunity to the indiscriminate binding peptides in 48 patients with either breast or ovarian cancer and 18 healthy controls.
Using an ELIspot assay with a limit of detection of approximately 1:100,000 antigen-specific T cells per million PBMC, patient-derived PBMC were screened for reactivity against all of the HLA-DR binding peptides.

short term T cell lines = experiment: IFN-γ ELISpot analysis of short term T cell lines (natural processing); type: cell-based, human; conditions: T cell lines respond to peptide and protein fragment; FIGS. 5, 6
purified HLA DRB1*0404 = target: T2, purified HLA DRB1*0404 (Homo sapiens, UniProt P01903+P01911, A100R/A169T/F76Y/I96L/K127E/L162R/M171V/N62H/P40V/Q125Y/R42H/S133A/S149N/S66Y/V209L/W38E); experiment: HLA-DR radioligand binding inhibition assay, DRB1*0404
T2 construct: MHC molecules utilized were purified from EBV transformed homozygous cell lines or single MHC allele transfected 721.221, C1R, or fibroblast lines; made in house; host or cells: EBV transformed homozygous cell lines or single MHC allele transfected 721.221, C1R, or fibroblast lines
Procedure: as §1, with “n-octylglucoside. […] The pH was reduced to 8.0 and the eluates were concentrated by centrifugation in Centriprep 30 concentrators at 2000 rpm (Amicon, Beverly, Mass.).” for “n-octylglucoside.”
as §2, with “Instruments). […] Competitor peptides are tested in 2-4 complete, independent experiments, at concentrations ranging from 30 μg/mL to 300 pg/mL.” for “Instruments).”

Compound | % = Percent of patients with responses (patient-derived PBMC) [%] | naturally processed and presented antigen (short term T cell lines) | also measured
CC[C@H](C)[C@H](NC(=O)[C@H](C)NC(=O)[C@@H](NC(=O)[C@@H]1CCCN1C(=O)[C@@H](NC(=O)[C@@H](N)CCCCN)[C@@H](C)CC)C(C)C)C(=O)N[C@@H](CCCCN)C(=O)N[C@H](C(=O)N[C@@H](CC(C)C)C(=O)N[C@@H](CCCNC(=N)N)C(=O)N[C@@H](CCC(=O)O)C(=O)N[C@@H](CC(N)=O)C(=O)N[C@H](C(=O)N[C@@H](CO)C(=O)N1CCC[C@H]1C(=O)O)[C@@H](C)O)C(C)C [Peptide 1622.03] | – | – | IC50 (purified HLA DRB1*0701): > 20 µM
CC(C)C[C@H](NC(=O)[C@H](CC(N)=O)NC(=O)[C@H](CO)NC(=O)[C@@H](NC(=O)[C@H](Cc1ccccc1)NC(=O)[C@H](CS)NC(=O)[C@H](C)NC(=O)[C@@H](N)Cc1ccc(O)cc1)C(C)C)C(=O)N[C@@H](C)C(=O)N[C@H](C(=O)NCC(=O)N[C@@H](CCCNC(=N)N)C(=O)N[C@@H](CC(N)=O)C(=O)N[C@@H](CC(N)=O)C(=O)N[C@@H](CO)C(=O)O)[C@@H](C)O [Peptide 9019.0141] | 25 | – | –
CC[C@H](C)[C@H](NC(=O)[C@H](CC(C)C)NC(=O)[C@H](CCCCN)NC(=O)CNC(=O)[C@@H](N)[C@@H](C)O)C(=O)N[C@@H](CCC(N)=O)C(=O)NCC(=O)N[C@@H](C)C(=O)N1CCC[C@H]1C(=O)N[C@H](C(=O)N[C@H](C(=O)N[C@@H](CCCNC(=N)N)C(=O)NCC(=O)N[C@@H](CC(=O)O)C(=O)N1CCC[C@H]1C(=O)O)[C@@H](C)CC)[C@@H](C)O [Peptide 9019.0192] | – | naturally processed peptides | –
CC[C@H](C)[C@H](NC(=O)[C@H](CCCNC(=N)N)NC(=O)[C@H](CC(C)C)NC(=O)[C@H](CCCNC(=N)N)NC(=O)[C@H](CCC(N)=O)NC(=O)[C@H](CC(C)C)NC(=O)[C@@H]1CCCN1C(=O)[C@@H](NC(=O)[C@H](CCC(N)=O)NC(=O)[C@H](CCCNC(=N)N)NC(=O)[C@@H](NC(=O)[C@H](CCC(N)=O)NC(=O)[C@H](CC(N)=O)NC(=O)[C@@H](N)Cc1c[nH]cn1)C(C)C)C(C)C)C(=O)N[C@H](C(=O)O)C(C)C [Peptide 9019.0034] | – | naturally processed and presented antigens | –
CC(C)C[C@H](NC(=O)[C@H](CC(C)C)NC(=O)[C@H](CC(C)C)NC(=O)[C@H](CC(C)C)NC(=O)[C@H](CC(C)C)NC(=O)[C@H](CC(C)C)NC(=O)[C@@H]1CCCN1C(=O)[C@H](CC(C)C)NC(=O)[C@H](CC(C)C)NC(=O)[C@@H]1CCCN1C(=O)[C@H](CC(C)C)NC(=O)[C@@H](N)CC(C)C)C(=O)NCC(=O)N[C@@H](C)C(=O)N[C@@H](CO)C(=O)O [Peptide 9019.0176] | – | naturally processed peptides | –
CC[C@H](C)[C@H](NC(=O)[C@@H]1CCCN1)C(=O)N[C@@H](CCCCN)C(=O)N[C@@H](Cc1c[nH]c2ccccc12)C(=O)N[C@@H](CCSC)C(=O)N[C@@H](C)C(=O)N[C@@H](CC(C)C)C(=O)N[C@@H](CCC(=O)O)C(=O)N[C@@H](CO)C(=O)N[C@H](C(=O)N[C@@H](CC(C)C)C(=O)N[C@@H](CCCNC(=N)N)C(=O)N[C@@H](CCCNC(=N)N)C(=O)N[C@@H](CCCNC(=N)N)C(=O)N[C@@H](Cc1ccccc1)C(=O)O)[C@@H](C)CC [Peptide 9019.0087] | 25 | naturally processed and presented antigens | fraction of patients that had mean T cell values above the cutoff (patient-derived PBMC; FIG. 1): 25%
CC(C)C[C@H](NC(=O)[C@H](CC(C)C)NC(=O)[C@H](CC(C)C)NC(=O)[C@H](CC(C)C)NC(=O)[C@H](CC(C)C)NC(=O)[C@H](CC(C)C)NC(=O)[C@@H]1CCCN1)C(=O)NCC(=O)N[C@@H](C)C(=O)N[C@@H](CO)C(=O)NCC(=O)NCC(=O)NCC(=O)NCC(=O)NCC(=O)O [Peptide 9019.0177] | – | naturally processed peptides | –
CC[C@H](C)[C@H](NC(=O)[C@H](Cc1c[nH]cn1)NC(=O)[C@H](CC(C)C)NC(=O)[C@H](CO)NC(=O)[C@H](Cc1ccc(O)cc1)NC(=O)[C@H](CC(C)C)NC(=O)[C@H](Cc1c[nH]cn1)NC(=O)[C@H](CCC(=O)O)NC(=O)[C@H](CC(C)C)NC(=O)[C@@H]1CCCN1C(=O)CNC(=O)[C@H](CCCNC(=N)N)NC(=O)[C@@H](N)CCC(=O)O)C(=O)N1CCC[C@H]1C(=O)N[C@@H](CC(N)=O)C(=O)O [Peptide 9019.0190] | 23 | naturally processed peptides | –
CC[C@H](C)[C@H](NC(=O)[C@@H](NC(=O)[C@H](CC(C)C)NC(=O)[C@H](CCCCN)NC(=O)[C@H](C)NC(=O)[C@@H](NC(=O)[C@@H](NC(=O)[C@@H]1CCCN1C(=O)[C@@H]1CCCN1C(=O)[C@H](CC(N)=O)NC(=O)[C@H](Cc1c[nH]c2ccccc12)NC(=O)[C@H](Cc1ccccc1)NC(=O)[C@@H](NC(=O)[C@H](CC(C)C)NC(=O)[C@@H](N)CC(C)C)[C@@H](C)O)[C@@H](C)O)[C@@H](C)O)[C@@H](C)O)C(=O)O [Peptide 9019.0105] | 17 | – | –
GDPLNNTTPVTGASP [Peptide 9019.0036] | – | – | IC50 (purified HLA DRB1*0701): 13.2 µM
CC(C)C[C@H](NC(=O)[C@H](CO)NC(=O)[C@H](C)NC(=O)[C@H](CC(N)=O)NC(=O)[C@@H](NC(=O)[C@@H]1CCCN1C(=O)[C@H](CC(C)C)NC(=O)[C@H](Cc1ccc(O)cc1)NC(=O)[C@@H](NC(=O)[C@H](CC(C)C)NC(=O)[C@H](CCC(=O)O)NC(=O)[C@H](CC(C)C)NC(=O)[C@@H](N)CC(N)=O)[C@@H](C)O)[C@@H](C)O)C(=O)N[C@@H](CO)C(=O)N[C@@H](Cc1ccccc1)C(=O)O [Peptide 9019.0030] | 15 | naturally processed and presented antigens | –
CC(C)C[C@H](NC(=O)[C@@H]1CCCN1C(=O)[C@@H](NC(=O)[C@@H](NC(=O)[C@@H]1CCCN1C(=O)[C@H](CC(=O)O)NC(=O)[C@H](CCC(=O)O)NC(=O)[C@H](CO)NC(=O)[C@H](Cc1ccc(O)cc1)NC(=O)[C@H](CCCNC(=N)N)NC(=O)[C@H](CCC(N)=O)NC(=O)[C@@H](N)CC(C)C)[C@@H](C)O)C(C)C)C(=O)N1CCC[C@H]1C(=O)N[C@@H](CO)C(=O)N[C@@H](CCC(=O)O)C(=O)O [Peptide 9019.0099] | – | – | IC50 (purified HLA DRB1*0404): 13.1 µM
CC[C@H](C)[C@H](N)C(=O)N[C@@H](CCCCN)C(=O)N[C@@H](Cc1c[nH]c2ccccc12)C(=O)N[C@@H](CCSC)C(=O)N[C@@H](C)C(=O)N[C@@H](CC(C)C)C(=O)N[C@@H](CCC(=O)O)C(=O)N[C@@H](CO)C(=O)N[C@H](C(=O)N[C@@H](CC(C)C)C(=O)N[C@@H](CCCNC(=N)N)C(=O)N[C@@H](CCCNC(=N)N)C(=O)N[C@@H](CCCNC(=N)N)C(=O)N[C@@H](Cc1ccccc1)C(=O)N[C@H](C(=O)O)[C@@H](C)O)[C@@H](C)CC [Peptide 9019.0003] | – | – | fraction of patients that had mean T cell values above the cutoff (patient-derived PBMC; FIG. 1): 4%; patient response rate on exclusion of one healthy individual's data point (patient-derived PBMC; FIG. 1, robust healthy responder excluded from cutoff): 15%
CC[C@H](C)[C@H](NC(=O)[C@H](CC(=O)O)NC(=O)[C@H](CCCCN)NC(=O)[C@H](Cc1c[nH]c2ccccc12)NC(=O)[C@H](CC(C)C)NC(=O)[C@@H](NC(=O)[C@@H](NC(=O)[C@H](CC(=O)O)NC(=O)[C@H](CCC(N)=O)NC(=O)[C@H](Cc1ccc(O)cc1)NC(=O)[C@H](CS)NC(=O)[C@H](CC(C)C)NC(=O)[C@H](CCC(N)=O)NC(=O)[C@@H]1CCCN1C(=O)[C@@H](N)CC(N)=O)[C@@H](C)O)[C@@H](C)CC)C(=O)O [Peptide 9019.0041] | – | – | IC50 (purified HLA DRB1*0701): > 20 µM
